Source: patent US20030096957A1, “AFX (zeta) transcription factor splice form” (priority 2001, published 2003)

What was measured:
Format in all cases: cell-based, human
[1] = system: AFXζ-induced PEPCK p-SEAP activity; assay: PEPCK p-SEAP reporter assay in HepG2 cells transfected with AFXζ
Procedure: (§1) FIG. 4. Effect of insulin on the transcriptional activity of AFXζ. HepG2 cells were transiently transfected with pcDNA6/His-AFXζ and PEPCK p-SEAP (A) or PEPCK IRS-SEAP (B). Twenty-four hours after transfection, cells were treated with insulin at the indicated concentration in fresh media and incubated for another 15-18 hours. SEAP and β-galactosidase activities were measured. The relative activation levels were standardized by comparison to the reporter activity from transfected cells without insulin treatment (A) or untreated cells transfected with the reporter alone (B). All values represent the means±S.D. of 3 independent experiments.
FIG. 5. Effect of bpV (peroxovanadate) and PKB on the transcriptional activity of AFXζ. A. HepG2 cells were transiently transfected with PEPCK p-SEAP and pcDNA6/His-AFXζ. Twenty-four hours after transfection, cells were treated with bpV at the indicated concentration in fresh media and were incubated for another 15-18 hours. The relative activation level was standardized by comparison to the reporter activity from transfection without bpV treatment. B. HepG2 cells were transiently cotransfected with the reporter constructs and pcDNA6/His-AFXζ with (filled bars) or without (open bars) the plasmid encoding myr-Akt1, which constitutively expresses active PKB. Forty-eight hours after transfection, SEAP and β-galactosidase activities were measured. The relative activation levels were standardized comparing with the activity from corresponding transfection with reporter alone. All values represent the means±S.D. of 3 independent experiments.
(§2) FIG. 6. Effect of AICAR on the transcriptional activity of AFXζ. A. HepG2 cells were transiently transfected with AFXζ and PEPCK p-SEAP (A) or PEPCK IRS-SEAP (B). Twenty-four hours after transfection, cells were treated with AICAR at indicated concentration in fresh media and incubated for another 15-18 hours. SEAP and β-galactosidase activities were measured. The relative activation levels were standardized by comparison to the activity from cells without AICAR treatment (A) or untreated cells transfected with the reporter alone (B). All values represent the means±S.D. of 3 independent experiments.
Double-stranded DNA fragments containing each of the IRS elements from the promoters of PEPCK, IGFBP- 1 and G6Pase were cloned into the Nhe I/Bgl II site of pSEAP2-promoter vector (Clontech). Dissected fragments of the PEPCK and IGFBP-1 IRS elements, referred as PEPCK-a, PEPCK-b and IGFBP-1a, IGFBP-1b, respectively, were cloned into the same site of pSEAP2-promoter. In addition, a 501 bp fragment corresponding to the human PEPCK 5′ regulatory sequence (−458 to +43 relative to the transcription start site, abbreviated as PEPCK p) was cloned into the Bgl II/EcoR I site of the same vector. […]

[2] = system: AFXζ-induced PEPCK IRS-SEAP activity; assay: PEPCK IRS-SEAP reporter assay in HepG2 cells transfected with AFXζ
Procedure: as §1, §2
Double-stranded DNA fragments containing each of the IRS elements from the promoters of PEPCK, IGFBP- 1 and G6Pase were cloned into the Nhe I/Bgl II site of pSEAP2-promoter vector (Clontech). Dissected fragments of the PEPCK and IGFBP-1 IRS elements, referred as PEPCK-a, PEPCK-b and IGFBP-1a, IGFBP-1b, respectively, were cloned into the same site of pSEAP2-promoter. […]
The human hepatoma cell line HepG2 was cultured in Dulbecco's Modified Eagle's Medium (DMEM) with 10% Fetal Bovine Serum (FBS, Life Technologies). […] Secreted alkaline phosphatase (SEAP) and β-galactosidase activities were measured using Phospha-Light and Galacto-Star systems (Tropix Inc., Bedford, Mass.), respectively.

HepG2 cells = system: HepG2 cells
Procedure: The human hepatoma cell line HepG2 was cultured in Dulbecco's Modified Eagle's Medium (DMEM) with 10% Fetal Bovine Serum (FBS, Life Technologies). Transient transfection experiments were performed in DMEM supplemented with 10% dialyzed FBS in 24-well plates. A DNA construct (0.2 μg unless otherwise specified) corresponding to IRS-SEAP, pcDNA6/His-AFXα or -AFXζ and CMV-β was added. Each set of reporter assay includes a transfection in which no AFX expression construct was added. In experiments where PKB effect was tested, 0.2 μg myr-Aktl in pUSEamp(+) (Upstate Biotechnology, Lake Placid, N.Y.), which constitutively expresses activated PKB, was included. Lipofectamine 2000 reagent (Life Technologies) was used for DNA transfection following the manufacturer's instruction. For experiment in which the cells were treated with soluble agents, the medium was changed 24 hours after the transfection. Cells were then treated with appropriate concentrations of bpV [potassium bisperoxo(1,1 0-phenanthroline) oxovanadate(V), Alexis Biochemicals, San Diego, Calif.], porcine insulin, or AICAR (5-aminoimidazole-4-carboxamide-1-β-D-ribofuranoside, Sigma, St. Louis, Mo.) in fresh media for another 15-18 hours. Secreted alkaline phosphatase (SEAP) and β-galactosidase activities were measured using Phospha-Light and Galacto-Star systems (Tropix Inc., Bedford, Mass.), respectively.

## NC(=O)c1ncn([C@@H]2O[C@H](CO)[C@@H](O)[C@H]2O)c1N [AICAR, 5-aminoimidazole-4-carboxamide-1-β-D-ribofuranoside]
[1]; HepG2, 200 μM AICAR
  transcriptional activity of AFXζ on the PEPCK promoter, % of untreated cells: 48%
[2]; HepG2, 200 μM AICAR
  induced PEPCK IRS-SEAP activity, % of the stimulation ascribed to transfected AFXζ: 20%

## O.O.O.OO.OO.[K+].[OH-].[V].c1cnc2c(c1)ccc1cccnc12 [bpV, potassium bisperoxo(1,1 0-phenanthroline) oxovanadate(V)]
[1]; HepG2, 5 μM bpV
  AFXζ-induced PEPCK p-SEAP reporter activity: below the basal level
[1]; HepG2, 15-18 hours
  lowest concentration repressing AFXζ-induced PEPCK p-SEAP reporter gene activity: 0.5 µM
HepG2 cells
  concentration with toxicity in HepG2 cells (reduction of control galactosidase activity): above 5 μM

## insulin: porcine insulin used to treat transfected HepG2 cells
[1]; HepG2, increasing concentrations of insulin, 15-18 hours
  induced PEPCK p-SEAP activity compared with the untreated cells: 50%
[2]; HepG2, 200 nM insulin
  AFXζ-induced PEPCK IRS-SEAP reporter activity: to the basal level
[2]; HepG2 cells in which exogenous AFXζ had not been introduced
  PEPCK IRS-SEAP activity: repressed
